According to patent US12227509B2, “Dihydropyrazolopyrazinone derivative having MGAT2 inhibitory activity” (Shionogi & Co., Ltd., priority 2019, dated 2025):

Each molecule was assayed against recombinant human MGAT2 (Homo sapiens (Human), UniProt Q3SYC2) (assay: Measurement of human MGAT2 inhibitory activity). Conditions: concentration exhibiting 50% enzyme inhibition; recombinant human MGAT2, 2-Oleoylglycerol/Oleoyl-CoA.
Assay type: biochemical
Method: A full-length human MGAT2 gene to which a Flag-tag had been added at the N-terminal was inserted into pFastBac (from Invitrogen). A recombinant baculovirus was produced in accordance with the protocol for a Bac-to-Bac baculovirus expression system (produced by Invitrogen), and Sf-9 cells were infected therewith. The cells were collected and sonicated, and then the membrane fraction was collected through centrifugation. Western blotting analysis with an anti-Flag antibody was performed for the membrane fraction to confirm expression, and the membrane fraction was used as a recombinant human MGAT2 enzyme solution.
Solutions of the compounds of the present invention in DMSO were each aliquoted into 0.2-μL portions in a 384-well polystyrene microplate produced by Corning Incorporated, and 5 μL of an enzyme solution prepared with an assay buffer (100 mmol/L phosphate buffer (pH 7.4) containing 2 mmol/L DTT) and 5 μL of a substrate solution (100 mmol/L phosphate buffer (pH 7.4), 30 μmol/L 2-Oleoylglycerol, 10 μmol/L Oleoyl-CoA) were added thereto, and the resultant was stirred and centrifuged, and incubated in a moist chamber at room temperature for 1 hour. After enzymatic reaction, 50 μL of a quenching solution (containing 0.2 μmol/L Diolein-d5, 0.4% formic acid, and 50% isopropanol) containing Internal Standard (IS) was added to terminate the reaction, and the resultant was sealed in a plate produced by Shimadzu GLC Ltd., and then stirred and centrifuged, and measurement was performed by using an electrospray ionization method with a RapidFire360 and Agilent 6550 Q-TOF mass spectrometer. Diolein as a reaction product (P) of 2-Oleoylglycerol as the substrate and an ammonium adduct ion of the IS were detected, and the peak intensity ratio, P/IS, was calculated from the peak heights to evaluate the inhibitory activity. Inhibitory activities with/without addition of enzyme were defined as Control (+)/Control (−), respectively, and the respective % inhibitions were defined as 0% inhibition and 100% inhibition. The inhibitory activity was calculated from formula below with TIBCO Spotfire (produced by TIBCO Software Inc.)
Inhibitory activity (%)=[1−{Sample−Control (−)}/{Control (+)−Control (−)}]*100 where Sample indicates a peak intensity ratio: P/IS, when the compound of the present invention was added.

recombinant human MGAT2, sequence (Q3SYC2 whole entry): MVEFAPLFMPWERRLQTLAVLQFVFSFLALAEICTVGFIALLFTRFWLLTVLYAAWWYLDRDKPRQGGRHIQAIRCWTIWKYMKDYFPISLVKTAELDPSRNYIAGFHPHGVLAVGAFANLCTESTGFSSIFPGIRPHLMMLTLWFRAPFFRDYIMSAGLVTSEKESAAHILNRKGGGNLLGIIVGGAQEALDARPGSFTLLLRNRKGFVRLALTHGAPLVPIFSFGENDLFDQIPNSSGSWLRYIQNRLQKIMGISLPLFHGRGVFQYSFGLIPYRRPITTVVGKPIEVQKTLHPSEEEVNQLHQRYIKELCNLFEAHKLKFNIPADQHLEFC

Row | SMILES | IC50 [nM]
1 | COc1ccc(-c2nn3c(c2NC(=O)CS(C)(=O)=O)C(=O)N[C@@]2(CCc4cc(OCC(F)(F)F)ccc42)C3)cc1F [Compound I-52] | 15.2
2 | Cc1c(F)cc(-c2nn3c(c2NC(=O)CS(C)(=O)=O)C(=O)N[C@@]2(CCc4cc(OCC(F)(F)F)ccc42)C3)cc1F [Compound I-53] | 1.75
3 | COCOc1ccc2c(c1)CCC21Cn2nc(-c3ccc(C#N)cn3)c(NC(=O)CS(C)(=O)=O)c2C(=O)N1 (centres unmarked) [Compound I-54] | 5.88
4 | Cc1ccc(-c2nn3c(c2NC(=O)CS(C)(=O)=O)C(=O)NC2(CCc4cc(OCc5ccccc5)ccc42)C3)nc1 (centres unmarked) [Compound I-55] | 1
5 | CS(=O)(=O)CC(=O)Nc1c(-c2ccc(C3CC3)cn2)nn2c1C(=O)N[C@]1(CCc3cc(OCC(F)(F)F)ccc31)C2 [Compound I-56] | 1.03
6 | CS(=O)(=O)CC(=O)Nc1c(-c2ccc(C3CC3)cn2)nn2c1C(=O)N[C@@]1(CCc3cc(OCC(F)(F)F)ccc31)C2 [Compound I-57] | 1.14
7 | CS(=O)(=O)CC(=O)Nc1c(-c2ccc(Cl)cn2)nn2c1C(=O)N[C@]1(CCc3cc(OCC(F)(F)F)ccc31)C2 [Compound I-59] | 0.48
8 | CS(=O)(=O)CC(=O)Nc1c(-c2ccc(Cl)cn2)nn2c1C(=O)N[C@@]1(CCc3cc(OCC(F)(F)F)ccc31)C2 [Compound I-60] | 0.527
9 | CS(=O)(=O)CC(=O)Nc1c(CCC2CC2)nn2c1C(=O)NC1(CN(c3ccc(C(F)(F)F)cc3)C1)C2 [Compound I-64] | 1.26
10 | Cc1ccc(-c2nn3c(c2NC(=O)CS(C)(=O)=O)C(=O)NC2(CN(c4ccc(C(F)(F)F)cc4)C2)C3)nc1 [Compound I-65] | 0.935
11 | CS(=O)(=O)CC(=O)Nc1c(-c2ccc(F)c(F)c2)nn2c1C(=O)N[C@@]1(CCOc3cc(OCC(F)(F)F)ccc31)C2 [Compound I-67] | 0.671
12 | CCOc1ccc2c(c1)CC[C@@]21Cn2nc(-c3ccc(F)cc3)c(NC(=O)CS(C)(=O)=O)c2C(=O)N1 [Compound I-68] | 4.04
13 | CCOc1ccc2c(c1)CC[C@@]21Cn2nc(-c3ccc(F)c(F)c3)c(NC(=O)CS(C)(=O)=O)c2C(=O)N1 [Compound I-69] | 2.78
14 | CS(=O)(=O)CC(=O)Nc1c(-c2ccc(F)cc2)nn2c1C(=O)N[C@]1(CCOc3cc(OCC(F)(F)F)ccc31)C2 [Compound I-70] | 2.6
15 | CS(=O)(=O)CC(=O)Nc1c(-c2ccc(F)c(F)c2)nn2c1C(=O)N[C@]1(CCOc3cc(OCC(F)(F)F)ccc31)C2 [Compound I-71] | 1.8
16 | CS(=N)(=O)CC(=O)Nc1c(-c2ccc(Cl)c(F)c2)nn2c1C(=O)N[C@@]1(CCc3cc(OCC(F)(F)F)ccc31)C2 (some centres unmarked) [Compound I-73] | 2.82
17 | Cc1ccc(-c2nn3c(c2NC(=O)CS(C)(=O)=O)C(=O)N[C@@]2(CCc4cc(OCCCC(F)(F)F)ccc42)C3)nc1 [Compound I-74] | 1.06
18 | Cc1ccc(-c2nn3c(c2NC(=O)CS(C)(=O)=O)C(=O)N[C@]2(CCc4cc(OCCCC(F)(F)F)ccc42)C3)nc1 [Compound I-75] | 1.47
19 | Cc1ccc(-c2nn3c(c2NC(=O)CS(C)(=O)=O)C(=O)N[C@]2(CCc4cc(OCC(F)(F)F)ccc42)C3)cc1 [Compound I-76] | 1.94
20 | Cc1cccc(-c2nn3c(c2NC(=O)CS(C)(=O)=O)C(=O)N[C@]2(CCc4cc(OCC(F)(F)F)ccc42)C3)c1 [Compound I-77] | 2.54
21 | Cc1ccccc1-c1nn2c(c1NC(=O)CS(C)(=O)=O)C(=O)N[C@]1(CCc3cc(OCC(F)(F)F)ccc31)C2 [Compound I-78] | 88.3
22 | CS(=O)(=O)CC(=O)Nc1c(-c2ccc(C(F)F)cc2)nn2c1C(=O)N[C@]1(CCc3cc(OCC(F)(F)F)ccc31)C2 [Compound I-80] | 1.28
23 | CS(=O)(=O)CC(=O)Nc1c(-c2ccc(C(F)(F)F)cc2)nn2c1C(=O)N[C@]1(CCc3cc(OCC(F)(F)F)ccc31)C2 [Compound I-81] | 1.54

More lines, now with the values ahead:

Row | IC50 [nM] | SMILES
24 | 6.51 | COc1ccc(-c2nn3c(c2NC(=O)CS(C)(=O)=O)C(=O)N[C@]2(CCc4cc(OCC(F)(F)F)ccc42)C3)cc1 [Compound I-82]
25 | 4.37 | CS(=O)(=O)CC(=O)Nc1c(-c2ccc(OC(F)(F)F)cc2)nn2c1C(=O)N[C@]1(CCc3cc(OCC(F)(F)F)ccc31)C2 [Compound I-83]
26 | 2.51 | CS(=O)(=O)CC(=O)Nc1c(-c2ccc(OC(F)F)cc2)nn2c1C(=O)N[C@]1(CCc3cc(OCC(F)(F)F)ccc31)C2 [Compound I-84]
27 | 2.88 | CS(=O)(=O)CC(=O)Nc1c(-c2ccc(C3CC3)cc2)nn2c1C(=O)N[C@]1(CCc3cc(OCC(F)(F)F)ccc31)C2 [Compound I-85]
28 | 131 | CS(=O)(=O)CC(=O)Nc1c(-c2ccc(OC3CC3)cc2)nn2c1C(=O)N[C@]1(CCc3cc(OCC(F)(F)F)ccc31)C2 [Compound I-86]
29 | 2.55 | CS(=O)(=O)CC(=O)Nc1c(-c2ccc(C#N)cc2)nn2c1C(=O)N[C@]1(CCc3cc(OCC(F)(F)F)ccc31)C2 [Compound I-87]
30 | 1.17 | Cc1cc(-c2nn3c(c2NC(=O)CS(C)(=O)=O)C(=O)N[C@]2(CCc4cc(OCC(F)(F)F)ccc42)C3)ccc1F [Compound I-88]
31 | 0.761 | CS(=O)(=O)CC(=O)Nc1c(-c2ccc(F)c(F)c2)nn2c1C(=O)N[C@]1(CCc3cc(OCC(F)(F)F)ccc31)C2 [Compound I-89]
32 | 1.1 | Cc1ccc(-c2nn3c(c2NC(=O)CS(C)(=O)=O)C(=O)N[C@]2(CCc4cc(OCC(F)(F)F)ccc42)C3)cc1F [Compound I-90]
33 | 19.5 | Cc1cc(F)ccc1-c1nn2c(c1NC(=O)CS(C)(=O)=O)C(=O)N[C@]1(CCc3cc(OCC(F)(F)F)ccc31)C2 [Compound I-91]
34 | 0.585 | CS(=O)(=O)CC(=O)Nc1c(-c2cc(F)c(F)c(F)c2)nn2c1C(=O)N[C@]1(CCc3cc(OCC(F)(F)F)ccc31)C2 [Compound I-92]
35 | 9.47 | CC(C)(O)c1ccc(-c2nn3c(c2NC(=O)CS(C)(=O)=O)C(=O)N[C@]2(CCc4cc(OCC(F)(F)F)ccc42)C3)cc1 [Compound I-93]
36 | 1.08 | CS(=O)(=O)CC(=O)Nc1c(CCC2CC2)nn2c1C(=O)N[C@]1(CCc3cc(OCC(F)(F)F)ccc31)C2 [Compound I-94]
37 | 1.48 | CCCCCc1nn2c(c1NC(=O)CS(C)(=O)=O)C(=O)N[C@]1(CCc3cc(OCC(F)(F)F)ccc31)C2 [Compound I-95]
38 | 208 | CS(=O)(=O)CC(=O)Nc1c(-c2ccc(S(C)(=O)=O)cc2)nn2c1C(=O)N[C@]1(CCc3cc(OCC(F)(F)F)ccc31)C2 [Compound I-96]
39 | 3.51 | CC(C)c1ccc(-c2nn3c(c2NC(=O)CS(C)(=O)=O)C(=O)N[C@]2(CCc4cc(OCC(F)(F)F)ccc42)C3)cc1 [Compound I-97]
40 | 2.15 | CS(=O)(=O)CC(=O)Nc1c(-c2cc(F)cc(F)c2)nn2c1C(=O)N[C@]1(CCc3cc(OCC(F)(F)F)ccc31)C2 [Compound I-98]
41 | 1.28 | CS(=O)(=O)CC(=O)Nc1c(-c2ccc(C#N)c(F)c2)nn2c1C(=O)N[C@]1(CCc3cc(OCC(F)(F)F)ccc31)C2 [Compound I-99]
42 | 4.59 | COc1ccc(-c2nn3c(c2NC(=O)CS(C)(=O)=O)C(=O)N[C@]2(CCc4cc(OCC(F)(F)F)ccc42)C3)cc1F [Compound I-100]
43 | 1.36 | Cc1c(F)cc(-c2nn3c(c2NC(=O)CS(C)(=O)=O)C(=O)N[C@]2(CCc4cc(OCC(F)(F)F)ccc42)C3)cc1F [Compound I-101]
44 | 5.65 | CS(=O)(=O)CC(=O)Nc1c(CCC(F)(F)F)nn2c1C(=O)N[C@]1(CCc3cc(OCC(F)(F)F)ccc31)C2 [Compound I-102]
45 | 7.03 | CCOc1ccc2c(c1)CC[C@]21Cn2nc(CCC3CC3)c(NC(=O)CS(C)(=O)=O)c2C(=O)N1 [Compound I-103]
46 | 24.7 | CCCCCc1nn2c(c1NC(=O)CS(C)(=O)=O)C(=O)N[C@@]1(CCc3cc(OCC)ccc31)C2 [Compound I-104]
47 | 3.43 | CS(=N)(=O)CC(=O)Nc1c(-c2ccc(F)c(F)c2)nn2c1C(=O)N[C@@]1(CCc3cc(OCC(F)(F)F)ccc31)C2 (some centres unmarked) [Compound I-108]
48 | 1.18 | CS(=O)(=O)CC(=O)Nc1c(CCC2CC2)nn2c1C(=O)N[C@@]1(CCOc3cc(OCC(F)(F)F)ccc31)C2 [Compound I-109]
49 | 2.14 | CS(=O)(=O)CC(=O)Nc1c(CCC2CC2)nn2c1C(=O)N[C@]1(CCOc3cc(OCC(F)(F)F)ccc31)C2 [Compound I-110]
50 | 7.61 | CCOc1ccc2c(c1)CC[C@@]21Cn2nc(CCC3CC3)c(NC(=O)CS(C)(=O)=O)c2C(=O)N1 [Compound I-111]
51 | 3.96 | CS(=N)(=O)CC(=O)Nc1c(-c2ccc(C(F)(F)F)cc2)nn2c1C(=O)N[C@@]1(CCc3cc(OCC(F)(F)F)ccc31)C2 (some centres unmarked) [Compound I-112]
52 | 1.58 | CCCCCc1nn2c(c1NC(=O)CS(C)(=O)=O)C(=O)N[C@@]1(CCOc3cc(OCC(F)(F)F)ccc31)C2 [Compound I-113]
53 | 3.1 | CCCCCc1nn2c(c1NC(=O)CS(C)(=O)=O)C(=O)N[C@]1(CCOc3cc(OCC(F)(F)F)ccc31)C2 [Compound I-114]
